# Measured values taken from ChEMBL document CHEMBL3132769, “Fragment growing to retain or alter the selectivity of anchored kinase hinge-binding fragments” (Medchemcomm, 2014).
# Tests used:
# [1] = biological target: T1, Mitogen-activated protein kinase 12 (Homo sapiens) (UniProt P53778); assay: Inhibition of human full length p38 gamma expressed in Escherichia coli cell assessed as substrate phosphorylation using fluorescence-labelled peptides as substrate at 9 uM after 90 mins by microfluidic peptide phosphorylation assay
# T1 sequence (whole entry): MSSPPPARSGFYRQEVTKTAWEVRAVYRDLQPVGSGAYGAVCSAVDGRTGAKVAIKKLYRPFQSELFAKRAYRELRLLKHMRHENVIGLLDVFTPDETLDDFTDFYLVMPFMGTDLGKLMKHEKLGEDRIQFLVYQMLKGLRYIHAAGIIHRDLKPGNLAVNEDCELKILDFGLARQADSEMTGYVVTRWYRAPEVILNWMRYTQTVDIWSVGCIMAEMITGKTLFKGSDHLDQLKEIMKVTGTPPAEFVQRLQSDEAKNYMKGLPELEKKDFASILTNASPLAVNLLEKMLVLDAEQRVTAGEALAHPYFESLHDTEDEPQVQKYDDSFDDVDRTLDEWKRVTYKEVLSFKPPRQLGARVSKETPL
# [2] = biological target: T2, Protein kinase C zeta type (Homo sapiens) (UniProt Q05513); assay: Inhibition of human full length PKC zeta expressed in baculovirus assessed as substrate phosphorylation using fluorescence-labelled peptides as substrate at 9 uM after 90 mins by microfluidic peptide phosphorylation assay
# T2 sequence (whole entry): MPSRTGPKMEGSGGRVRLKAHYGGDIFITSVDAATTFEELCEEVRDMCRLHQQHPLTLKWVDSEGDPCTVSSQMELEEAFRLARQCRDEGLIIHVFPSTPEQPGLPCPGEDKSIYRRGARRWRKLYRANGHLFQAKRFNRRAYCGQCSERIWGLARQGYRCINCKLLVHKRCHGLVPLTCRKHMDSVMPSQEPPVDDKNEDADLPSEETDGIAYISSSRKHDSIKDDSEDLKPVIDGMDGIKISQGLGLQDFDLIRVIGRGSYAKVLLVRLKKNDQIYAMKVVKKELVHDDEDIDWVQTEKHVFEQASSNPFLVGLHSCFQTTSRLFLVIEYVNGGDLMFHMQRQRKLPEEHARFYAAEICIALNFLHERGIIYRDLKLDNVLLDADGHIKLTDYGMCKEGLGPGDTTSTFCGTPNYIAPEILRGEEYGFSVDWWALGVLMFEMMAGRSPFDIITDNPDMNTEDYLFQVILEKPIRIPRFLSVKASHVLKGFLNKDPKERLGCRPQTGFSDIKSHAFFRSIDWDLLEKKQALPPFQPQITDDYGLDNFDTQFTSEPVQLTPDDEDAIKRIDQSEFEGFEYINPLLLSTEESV
# [3] = biological target: T3, Aurora kinase A (Homo sapiens) (UniProt O14965); conditions: 0.1 uM
# T3 sequence (whole entry): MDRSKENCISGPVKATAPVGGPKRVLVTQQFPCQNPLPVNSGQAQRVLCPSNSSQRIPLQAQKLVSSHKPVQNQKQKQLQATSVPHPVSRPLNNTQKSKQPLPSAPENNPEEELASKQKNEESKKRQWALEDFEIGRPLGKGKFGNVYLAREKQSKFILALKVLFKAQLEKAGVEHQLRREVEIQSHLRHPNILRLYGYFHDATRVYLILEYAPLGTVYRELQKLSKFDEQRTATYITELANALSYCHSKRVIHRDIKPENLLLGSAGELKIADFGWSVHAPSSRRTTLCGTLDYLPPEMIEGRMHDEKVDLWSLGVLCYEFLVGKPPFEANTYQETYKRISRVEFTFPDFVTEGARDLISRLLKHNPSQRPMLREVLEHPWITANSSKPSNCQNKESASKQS
# Description: Inhibition of human full length AurA expressed in baculovirus assessed as substrate phosphorylation using fluorescence-labelled peptides as substrate at 0.1 uM after 90 mins by microfluidic peptide phosphorylation assay
# [4] = biological target: Dual specificity tyrosine-phosphorylation-regulated kinase 1A (Rattus norvegicus) (UniProt Q63470); assay: Inhibition of rat full length DYRK1a expressed in Escherichia coli cell assessed as substrate phosphorylation using fluorescence-labelled peptides as substrate at 0.2 uM after 90 mins by microfluidic peptide phosphorylation assay
# [5] = biological target: T4, Inhibitor of nuclear factor kappa-B kinase subunit beta (Homo sapiens) (UniProt O14920); assay: Inhibition of human full length IKK beta expressed in baculovirus assessed as substrate phosphorylation using fluorescence-labelled peptides as substrate at 2 uM after 90 mins by microfluidic peptide phosphorylation assay
# T4 sequence (whole entry): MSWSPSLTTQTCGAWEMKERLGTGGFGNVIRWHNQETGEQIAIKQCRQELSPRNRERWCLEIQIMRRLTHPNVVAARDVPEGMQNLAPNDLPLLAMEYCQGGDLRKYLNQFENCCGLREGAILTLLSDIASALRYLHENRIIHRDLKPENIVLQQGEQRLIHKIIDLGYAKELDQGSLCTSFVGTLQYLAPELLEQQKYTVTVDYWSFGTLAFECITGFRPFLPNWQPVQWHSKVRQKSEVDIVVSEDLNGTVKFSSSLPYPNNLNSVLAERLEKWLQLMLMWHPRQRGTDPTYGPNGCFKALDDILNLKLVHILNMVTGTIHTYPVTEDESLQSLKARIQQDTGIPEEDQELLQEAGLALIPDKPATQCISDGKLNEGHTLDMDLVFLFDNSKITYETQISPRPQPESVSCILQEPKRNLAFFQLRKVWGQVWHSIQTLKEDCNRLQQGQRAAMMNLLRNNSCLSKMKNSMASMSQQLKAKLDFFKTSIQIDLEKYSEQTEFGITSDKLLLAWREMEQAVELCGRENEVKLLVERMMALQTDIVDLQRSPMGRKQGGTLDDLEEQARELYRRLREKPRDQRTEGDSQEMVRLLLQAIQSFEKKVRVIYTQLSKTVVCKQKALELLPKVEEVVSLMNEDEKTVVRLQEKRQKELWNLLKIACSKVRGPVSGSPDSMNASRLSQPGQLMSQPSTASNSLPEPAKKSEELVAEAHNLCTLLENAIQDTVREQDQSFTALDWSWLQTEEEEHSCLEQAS
compound,measurement,setting,value
NCC1CN(c2ncnc3[nH]c4cnccc4c23)CCO1 (stereo not given),inhibition,[1],4.5%
same,inhibition,[2],22%
C[C@H](CN(C)C)Oc1nc(Nc2cc3cccc(Cl)c3cn2)cnc1C#N,inhibition,[3],0%
Clc1ccc(C2(c3ccc(-c4ncnc5[nH]cnc45)cc3)CCNCC2)cc1,inhibition,[4],11%
NC1CCN(c2ncnc3[nH]ccc23)CC1,inhibition,[5],1%
